The test system of experiment [1] is Candida auris strain AR Bank #384 (K). The experiment can be described thus: MIC determination by in vitro antifungal assay. It is filed as cell-based. How it is done: (§1) The antifungal agent amphotericin B (AmB) was purchased from VWR (Radnor PA, USA). AmB was dissolved in DMSO at a final concentration of 5 mg/mL and was stored at −20° C., protected from light. Candida albicans American Type Culture Collection (ATCC) 10231 (strain A), C. albicans ATCC 64124 (B), and C. albicans ATCC MYA-2876 (C) were obtained from Utah State University. C. albicans ATCC 90819 (D), C. albicans ATCC MYA-2310 (E), C. albicans ATCC MYA-1237 (F), C. albicans ATCC MYA-1003 (G), Candida glabrata ATCC 2001 (H), Candida krusei ATCC 6258 (I), Candida parapsilosis ATCC 22019 (J), Cryptococcus neoformans ATCC MYA-895 (M), Aspergillus terreus ATCC MYA-3633 (N), and Aspergillus flavus ATCC MYA-3631 (0) were obtained from the American Type Culture Collection (ATCC; Manassas, VA, USA). Aspergillus nidulans ATCC 38163 (P) was obtained from University of Kentucky. Clinically derived Aspergillus fumigatus NRRL 163 (Q), A. fumigatus NRRL 5109 (R), and A. fumigatus NRRL 6113 (S) were obtained from Northern Regional Research Laboratory (NRRL). Candida auris 384 (K), C. auris 390 (L), and fungal strains 381-400 (including 10 C. auris (AR Bank #381-390), 3 Candida duobushaemulonii (AR Bank #391, AR Bank #392, and AR Bank #394), 2 Candida haemulonii (AR Bank #393 and AR Bank #395), 1 Kodameae ohmeri (AR Bank #396), 1 C. krusei (AR Bank #397), 1 Candida lusitaniae (AR Bank #398), and 2 Saccharomyces cerevisiae strains (AR Bank #399 and AR Bank #400)) were part of a larger fungal library from the AR Bank maintained by the Centers for Disease Control and Prevention (CDC; Atlanta, GA, USA). Filamentous fungi and yeasts were cultivated at 35° C. in RPMI 1640 medium (with L-glutamine, without sodium bicarbonate, Sigma-Aldrich, St. Louis, MO) buffered to a pH of 7.0 with 0.165 M morpholinepropanesulfonic acid (MOPS) buffer (Sigma-Aldrich). For cytotoxicity assays, HepG2 and the mouse macrophage cell line J774A.1 were obtained from University of Kentucky. The human embryonic kidney cell line, HEK-293, was bought from the ATCC. Mammalian cells were grown in Dulbecco's Modified Eagle's Medium (DMEM) (from VWR) with 10% fetal bovine serum (FBS) (from VWR) and 1% Pen/Strep (from ATCC). Cell lines were cultured at 37° C. with 5% CO2 and passaged by trypsinization with 0.05% trypsin: 0.53 mM EDTA (from Sigma-Aldrich).
(§2) From the actively growing yeast culture, 100 µL were then transferred to 900 μL of RPMI 1640 medium and re-adjusted to achieve OD600 of 0.12 (˜1×10^6 CFU/mL). The cell suspension was further diluted to achieve 1:100 in RPMI 1640 medium.
(§3) Finally, the activity of these monohydrazides was explored against […] non-Candida strains: Cryptococcus neoformans ATCC MYA-895 (M), Aspergillus terreus ATCC MYA-3633 (N), Aspergillus flavus ATCC MYA-3631 (O), Aspergillus nidulans ATCC 38163 (P), Aspergillus fumigatus NRRL 163 (Q), A. fumigatus NRRL 5109 (R), and A. fumigatus NRRL 6113 (S) (Tables 1A and 1B). The double dilution method was used with concentrations ranging from 0.06 to 31.3 j·tg mL^−1 for monohydrazides 1a-9j, and the commercially available positive antifungal control amphotericin B (AmB).

Experiment [2] relates to C. auris strain AR Bank #390 (L). Description: MIC determination by in vitro antifungal assay. It is filed as cell-based, Candida auris. How it is done:
as §1, §2, §3

Where [3] appears, read: C. auris AR Bank # 384 (K) (Table 2B).
Where [4] appears, read: strain K = C. auris AR Bank # 0384 (Tables 1A/1B).
The mark [5] stands for this setting: C. auris AR Bank # 390 (L) (Table 2B).
Where [6] appears, read: strain L = C. auris AR Bank # 0390 (Tables 1A/1B).
Setting [7] is: Candidozyma auris, strain K = C. auris AR Bank # 0384 (Tables 1A/1B), read-out: MIC.
The mark [8] stands for this setting: Candidozyma auris, strain L = C. auris AR Bank # 0390 (Tables 1A/1B), read-out: MIC.
Where [9] appears, read: Candidozyma auris, C. auris AR Bank # 384 (K) (Table 2B), read-out: MIC.
Where [10] appears, read: Candidozyma auris, C. auris AR Bank # 390 (L) (Table 2B), read-out: MIC.
Setting [11] is: Candidozyma auris, C. auris AR Bank #384 (K), read-out: MIC.
Setting [12] is: Candidozyma auris, C. auris AR Bank #390 (L), read-out: MIC.

≈ marks a conversion by molar mass, not a printed value. Read-outs that look alike come from different tables or passages of the source.

On to `O=C(NNc1ccc(Cl)cc1)c1cccc(F)n1` [Compound 5e], for which the MIC in experiment [1] (setting [3]) is recorded as 3.9 μg/mL^−1; in experiment [1] (setting [4]), 3.9 μg/mL^−1; in experiment [2] (setting [5]), 7.8 μg/mL^−1; in experiment [2] (setting [6]), 7.8 μg/mL^−1.
For `COc1ccc(NNC(=O)c2cccc(F)n2)cc1` [Compound 5f], the MIC in experiment [1] (setting [7]) and in experiment [2] (setting [8]) was 1.95 µg/mL (≈ 7.46 µM) in each case.
On to `O=C(NNc1ccc(F)cc1F)c1cccc(F)n1` [Compound 5g], for which the MIC in experiment [1] (setting [9]) came to 3.9 µg/mL (≈ 14.6 µM); in experiment [1] (setting [7]), 7.8 µg/mL (≈ 29.2 µM); in experiment [2] (setting [10]), 3.9 µg/mL (≈ 14.6 µM); in experiment [2] (setting [8]), 3.9 µg/mL (≈ 14.6 µM).
For `O=C(NNc1cccc(F)c1)c1cccc(Br)n1` [Compound 6a], the MIC in experiment [1] (setting [4]) was found to be 3.9 μg/mL^−1; in experiment [2] (setting [6]), 1.95 μg/mL^−1.
For `O=C(NNc1ccc(F)cc1)c1cccc(Br)n1` [Compound 6d], the MIC in experiment [1] (setting [9]) was found to be 0.98 µg/mL (≈ 3.16 µM); in experiment [1] (setting [7]) it was 3.9 µg/mL (≈ 12.6 µM); in experiment [2] (setting [10]), 3.9 µg/mL (≈ 12.6 µM); in experiment [2] (setting [8]), 0.98 µg/mL (≈ 3.16 µM).
Take `COc1ccc(NNC(=O)c2cccc(Br)n2)cc1` [Compound 6f]: the MIC in experiment [1] (setting [7]) and in experiment [2] (setting [8]) was 1.95 µg/mL (≈ 6.05 µM) in each case.
Take `O=C(NNc1cccc(F)c1)c1ncc(F)cc1F` [Compound 7a]: the MIC in experiment [1] (setting [4]) and in experiment [2] (setting [6]) was 1.95 μg/mL^−1 in each case.
For `COc1cccc(NNC(=O)c2ncc(F)cc2F)c1` [Compound 7c], the MIC in experiment [1] (setting [7]) came out at 7.8 µg/mL (≈ 27.9 µM); in experiment [2] (setting [8]), 15.6 µg/mL (≈ 55.9 µM).
Take `O=C(NNc1ccc(F)cc1)c1ncc(F)cc1F` [Compound 7d]: the MIC in experiment [1] (setting [9]) stood at 0.49 µg/mL (≈ 1.83 µM); in experiment [1] (setting [7]), 1.95 µg/mL (≈ 7.3 µM); in experiment [2] (setting [10]), 3.9 µg/mL (≈ 14.6 µM); in experiment [2] (setting [8]), 0.98 µg/mL (≈ 3.67 µM).
Consider `O=C(NNc1ccc(Cl)cc1)c1ncc(F)cc1F` [Compound 7e], for which the MIC in experiment [1] (setting [3]) was found to be 7.9 μg/mL^−1; in experiment [1] (setting [4]) it was 3.9 μg/mL^−1; in experiment [2] (setting [5]) it was 7.8 μg/mL^−1; in experiment [2] (setting [6]), 7.8 μg/mL^−1.
With `COc1ccc(NNC(=O)c2ncc(F)cc2F)cc1` [Compound 7f], the MIC in experiment [1] (setting [9]) was 0.98 µg/mL (≈ 3.51 µM); in experiment [1] (setting [7]) it was 3.9 µg/mL (≈ 14 µM); in experiment [2] (setting [10]), 31.3 µg/mL (≈ 112 µM); in experiment [2] (setting [8]), 0.98 µg/mL (≈ 3.51 µM).
With `O=C(NNc1ccc(F)cc1F)c1ncc(F)cc1F` [Compound 7g], the MIC came to 0.98 µg/mL (≈ 3.44 µM) in experiment [1] (setting [9]), 7.8 µg/mL (≈ 27.3 µM) in experiment [1] (setting [7]), 7.8 µg/mL (≈ 27.3 µM) in experiment [2] (setting [10]) and 1.95 µg/mL (≈ 6.84 µM) in experiment [2] (setting [8]).
Consider `O=C(NNc1cccc(F)c1)c1nc(F)ccc1F` [Compound 8a], for which the MIC in experiment [1] (setting [4]) and in experiment [2] (setting [6]) was 1.95 μg/mL^−1 throughout.
As for `COc1cccc(NNC(=O)c2nc(F)ccc2F)c1` [Compound 8c], the MIC in experiment [1] (setting [7]) and in experiment [2] (setting [8]) was 15.6 µg/mL (≈ 55.9 µM) throughout.
In the case of `O=C(NNc1ccc(F)cc1)c1nc(F)ccc1F` [Compound 8d], the MIC was 0.49 µg/mL (≈ 1.83 µM) in experiment [1] (setting [9]), 1.95 µg/mL (≈ 7.3 µM) in experiment [1] (setting [7]), 1.95 µg/mL (≈ 7.3 µM) in experiment [2] (setting [10]) and 0.98 µg/mL (≈ 3.67 µM) in experiment [2] (setting [8]).
For `O=C(NNc1ccc(Cl)cc1)c1nc(F)ccc1F` [Compound 8e], the MIC in experiment [1] (setting [3]), in experiment [1] (setting [4]), in experiment [2] (setting [5]) and in experiment [2] (setting [6]) was 7.8 μg/mL^−1 in each case.
`COc1ccc(NNC(=O)c2nc(F)ccc2F)cc1` [Compound 8f]: the MIC in experiment [1] (setting [9]) was 0.98 µg/mL (≈ 3.51 µM); in experiment [1] (setting [7]), 3.9 µg/mL (≈ 14 µM); in experiment [2] (setting [10]) it was 31.3 µg/mL (≈ 112 µM); in experiment [2] (setting [8]), 0.98 µg/mL (≈ 3.51 µM).
Regarding `O=C(NNc1ccc(F)cc1F)c1nc(F)ccc1F` [Compound 8g], the MIC in experiment [1] (setting [9]) was determined as 0.98 µg/mL (≈ 3.44 µM); in experiment [1] (setting [7]), 3.9 µg/mL (≈ 13.7 µM); in experiment [2] (setting [10]), 31.3 µg/mL (≈ 110 µM); in experiment [2] (setting [8]) it was 1.95 µg/mL (≈ 6.84 µM).
Regarding `O=C(NNc1cccc(F)c1)c1cnccn1` [Compound 9a], the MIC in experiment [1] (setting [4]) and in experiment [2] (setting [6]) was 0.98 μg/mL^−1 in each case.
In the case of `O=C(NNc1cccc(Cl)c1)c1cnccn1` [Compound 9b], the MIC in experiment [1] (setting [11]) amounted to 0.98 µg/mL (≈ 3.94 µM); in experiment [1] (setting [7]), 1.95 µg/mL (≈ 7.84 µM); in experiment [2] (setting [12]) it was 0.49 µg/mL (≈ 1.97 µM); in experiment [2] (setting [8]), 0.98 µg/mL (≈ 3.94 µM).
As for `COc1cccc(NNC(=O)c2cnccn2)c1` [Compound 9c], the MIC was 1.95 µg/mL (≈ 7.98 µM) in experiment [1] (setting [11]), 1.95 µg/mL (≈ 7.98 µM) in experiment [1] (setting [7]), 0.98 µg/mL (≈ 4.01 µM) in experiment [2] (setting [12]) and 0.98 µg/mL (≈ 4.01 µM) in experiment [2] (setting [8]).
For `O=C(NNc1ccc(F)cc1)c1cnccn1` [Compound 9d], the MIC in experiment [1] (setting [7]) amounted to 0.49 µg/mL (≈ 2.11 µM); in experiment [2] (setting [8]), 0.98 µg/mL (≈ 4.22 µM).
With `O=C(NNc1ccc(Cl)cc1)c1cnccn1` [Compound 9e], the MIC in experiment [1] (C. auris AR Bank #384 (K)) was found to be 1.95 μg/mL^−1; in experiment [1] (setting [4]) it was 1.95 μg/mL^−1; in experiment [2] (C. auris AR Bank #390 (L)), 3.9 μg/mL^−1; in experiment [2] (setting [6]), 3.9 μg/mL^−1.
With `COc1ccc(NNC(=O)c2cnccn2)cc1` [Compound 9f], the MIC amounted to 0.98 µg/mL (≈ 4.01 µM) in experiment [1] (setting [11]), 0.49 µg/mL (≈ 2.01 µM) in experiment [1] (setting [7]), 0.98 µg/mL (≈ 4.01 µM) in experiment [2] (setting [12]) and 0.49 µg/mL (≈ 2.01 µM) in experiment [2] (setting [8]).
As for `O=C(NNc1ccc(F)cc1F)c1cnccn1` [Compound 9g], the MIC in experiment [1] (setting [11]) amounted to 3.9 µg/mL (≈ 15.6 µM); in experiment [1] (setting [7]), 3.9 µg/mL (≈ 15.6 µM); in experiment [2] (setting [12]), 0.98 µg/mL (≈ 3.92 µM); in experiment [2] (setting [8]) it was 0.98 µg/mL (≈ 3.92 µM).
Take `O=C(NNc1cc(F)ccc1F)c1cnccn1` [Compound 9h]: the results for the MIC in experiment [1] (setting [7]) and in experiment [2] (setting [8]) were 0.49 µg/mL (≈ 1.96 µM) and 1.95 µg/mL (≈ 7.79 µM), respectively.
For `O=C(NNc1cc(F)cc(F)c1)c1cnccn1` [Compound 9i], in that order: 0.49 µg/mL (≈ 1.96 µM) and 1.95 µg/mL (≈ 7.79 µM).
`O=C(NNc1cc(Cl)cc(Cl)c1)c1cnccn1` [Compound 9j]: the MIC in experiment [1] (setting [7]) stood at 15.6 µg/mL (≈ 55.1 µM); in experiment [2] (setting [8]), 7.8 µg/mL (≈ 27.6 µM).
